Source: patent US11779569B2, “Methods and compositions for treating hyperhidrosis” (THERAVIDA, INC., priority 2016, dated 2023)
One block for each compound: values may come before it.

Assays:
[1] = test system: subjects with primary focal hyperhidrosis; experiment: Hyperhidrosis Disease Severity Scale (HDSS), crossover clinical study; assay type: in vivo, human; conditions: BID by mouth, 21-day treatment period; 1 point drop=50% reduction in sweating, 2 points=80% reduction
Excerpt: (§1) The clinical study was a randomized, double blind, placebo-controlled, crossover study of approximately 18 subjects. Following qualification, subjects were randomized to one of 6 groups/sequences during which they received each of the three study treatments in sequential treatment periods. Each 21-day double-blind study treatment period was preceded by an at least 7-day washout period. Subsequent study treatment assignments were via the sequential three-way crossover design prescribed in that group. After completing the final study treatment period or early study treatment discontinuation, all subjects completed an end of study visit (approximately 14 days after the last study treatment administration. FIG. 5 illustrates a scheme of the clinical study design.
Subjects were randomized to 1 of 6 groups/sequences of study treatment administration. […]
(§2) Efficacy and safety analyses were conducted on study treatment (THVD-102 [7.5/7.5], oxybutynin or placebo). […] There was a statistically significant effect in each of three measures of efficacy: • 1) Hyperhidrosis Disease Severity Scale (p=0.03-0.05) • THVD-102 [7.5/7.5]=1.06±1.11; Oxybutynin=1.33±1.03; placebo=0.5±0.62 1 point drop=50% reduction in sweating; 2 points=80% reduction • 2) Hyperhidrosis Visual Analog Scale (p=0.01) • 3) Hyperhidrosis Visual Quantification Scale (p=0.005-0.07)

[2] = test system: subjects with primary focal hyperhidrosis; experiment: Dry Mouth Visual Analog Scale (DMVAS), crossover clinical study; assay type: in vivo, human; conditions: 100 mm scale, 100 = worst; PP; n 18
Excerpt: as §1, with “After completing the final study treatment period or early study treatment discontinuation, all subjects completed an end of study visit (approximately 14 days after the last study treatment administration. FIG. 5 illustrates a scheme of the clinical study design.” left out
The DMVAS will be used to quantify the severity of dry mouth experienced by subjects during this clinical trial. […] The score was determined by measuring the distance from the left anchor to where the line that the subject drew bisected the (100 mm) scale. The distance was measured and recorded in millimeters (mm). […]
as §2

[3] = test system: subjects with primary focal hyperhidrosis; experiment: Dry Mouth Questions (Dry Mouth Severity/Incidence Questionnaire), crossover clinical study; assay type: in vivo, human; conditions: PP, n 18
Excerpt: as §1
The active control of oxybutynin 7.5 mg is the comparator for THVD-102 [7.5/7.5] for the anti-muscarinic induced dry mouth symptom incidence and severity.
Subjects were randomized to 1 of 6 groups/sequences of study treatment administration. Each sequence included sequential crossover assignment to a 21-day treatment period of: • oxybutynin 7.5 mg BID alone by mouth; • THVD-102 [7.5/7.5] (oxybutynin 7.5 mg in combination with pilocarpine 7.5 mg) BID by mouth; and • placebo BID by mouth.
Dry Mouth Questions (Dry Mouth Severity/Incidence Questionnaire)
At the end of the end of each treatment period, investigational site staff questioned subjects regarding the incidence of dry mouth. This assessment occurred after the subject had completed the DMVAS and DTVAS and included questions relating to the incidence and severity of dry mouth symptoms and remedial actions taken. The investigator was instructed to query subjects in a non-judgmental, non-leading manner using the following script (© 2012, Thomas Tremblay and Robin Allgren) to elicit the incidence of dry mouth: • Have you had any dry mouth since starting (the most recent) study treatment? (at completion of Treatment Periods 1, 2, and 3)
as §2, with “placebo). Continuous data were summarized by using descriptive statistics (mean, SD, median, min, max) and categorical data were summarized in frequency tables. Using Day 1 of the first and each subsequent Treatment Period as baselines for measuring treatment effect, a Wilcoxon signed-rank test were performed.” for “placebo).”

[4] = Jacobs 1996; Cheshire and Fealey 2008; Salagen product insert; cited from earlier work

Dry mouth Visual Analog Scale, Change D0-D21 [2]: 43.9 ± 27.9 mm
Compound: CCN(CC)CC#CCOC(=O)C(O)(c1ccccc1)C1CCCCC1 (stereo not shown) [Oxybutynin, 4-Diethylaminobut-2-ynyl 2-cyclohexyl-2-hydroxy-2-phenylethanoate]
Hyperhidrosis Disease Severity Scale [1]: 1.33±1.03
Moderate/Severe dry mouth, number of subjects [3]: 13
Moderate/Severe dry mouth, percent of subjects [3]: 72%
None/Mild dry mouth, number of subjects [3]: 5
None/Mild dry mouth, percent of subjects [3]: 27%

Compound: CC[C@@H]1C(=O)OC[C@@H]1Cc1cncn1C [pilocarpine, (3S,4R)-3-Ethyl-4-((1-methyl-1H-imidazol-5-yl)methyl)dihydrofuran-2(3H)-one]
effect on sweating [4]: known to cause an increase in sweating
